According to ChEMBL document CHEMBL5625175, “Quinazoline-based VEGFR-2 inhibitors as potential anti-angiogenic agents: A contemporary perspective of SAR and molecular docking studies” (Eur J Med Chem, 2023):
In brackets after ≈: the same amount, converted by molar mass. Each block holds one molecule with its values, some of them ahead of it.

Columns and labels:
HepG2 [1] = experiment: Antiproliferative activity against human HepG2 cells assessed as reduction in cell growth measured after 24 hrs by MTT assay; type: functional, cell-based; conditions: HepG2, 24 h
PC-3 = experiment: Antiproliferative activity against human PC-3 cells assessed as reduction in cell growth measured after 24 hrs by MTT assay; type: functional, cell-based; conditions: PC-3, 24 h
MCF7 [2] = experiment: Antiproliferative activity against human MCF7 cells assessed as reduction in cell growth measured after 24 hrs by MTT assay; type: functional, cell-based; conditions: MCF7, 24 h
B16 = experiment: Antiproliferative activity against mouse B16 cells assessed as reduction in cell viability incubated for 48 hrs by MTT assay; type: functional, cell-based; conditions: B16, 48 h
HCT-116 [3] = experiment: cells; conditions: Homo sapiens, HCT-116, 48 h
MCF7 [4] = experiment: cells; conditions: Homo sapiens, MCF7, 48 h
HCT-116 [5] = experiment: Antiproliferative activity against human HCT-116 cells assessed as cell growth inhibition measured after 48 hrs by MTT assay; type: functional, cell-based; conditions: HCT-116, 48 h
MCF7 [6] = experiment: Antiproliferative activity against human MCF7 cells assessed as cell growth inhibition measured after 48 hrs by MTT assay; type: functional, cell-based; conditions: MCF7, 48 h
[7] = target: T1, Vascular endothelial growth factor receptor 2 (Homo sapiens, UniProt P35968)
[8] = target: Vascular endothelial growth factor receptor 1 (Homo sapiens, UniProt P17948); experiment: Inhibition of VEGFR-1 (unknown origin)
[9] = target: Vascular endothelial growth factor receptor 3 (Homo sapiens, UniProt P35916); experiment: Inhibition of VEGFR-3 (unknown origin)
[10] = target: T1, Vascular endothelial growth factor receptor 2; remark: listed apart in the source
MDA-MB-231 [11] = experiment: Cytotoxicity against human MDA-MB-231 cells assessed as reduction in cell viability incubated for 24 hrs by MTT assay; type: functional, cell-based; conditions: MDA-MB-231, 24 h
MDA-MB-231 [12] = experiment: Cytotoxicity against human MDA-MB-231 cells assessed as reduction in cell viability incubated for 48 hrs by MTT assay; type: functional, cell-based; conditions: MDA-MB-231, 48 h
A549 = experiment: cells; conditions: Homo sapiens, A549, 48 h
MCF7 [13] = experiment: cells; conditions: Homo sapiens, MCF7, 48 h; remark: listed apart in the source
NCI-H460 = experiment: cells; conditions: Homo sapiens, NCI-H460, 48 h
Macrophage = experiment: cells; conditions: Homo sapiens, 48 h
HCT-116 [14] = experiment: Antiproliferative activity against human HCT-116 cells assessed as reduction in cell growth incubated for 24 hrs by MTT assay; type: functional, cell-based; conditions: HCT-116, 24 h
MCF7 [15] = experiment: Antiproliferative activity against human MCF7 cells assessed as reduction in cell growth incubated for 24 hrs by MTT assay; type: functional, cell-based; conditions: MCF7, 24 h
HepG2 [16] = experiment: Cytotoxicity against human HepG2 cells assessed as cell growth inhibition; type: functional, cell-based
HCT-116 [17] = experiment: Cytotoxicity against human HCT-116 cells assessed as cell growth inhibition; type: functional, cell-based
WISH = experiment: Cytotoxicity against human WISH cells assessed as cell growth inhibition; type: functional, cell-based
[18] = target: T1, Vascular endothelial growth factor receptor 2; experiment: Inhibition of N-terminal polyhistidine human recombinant KDR using poly-(Glu4-Tyr) peptide as substrate incubated for 60 mins by DELFIA/time-resolved fluorometric analysis
[19] = target: T1, Vascular endothelial growth factor receptor 2; experiment: Inhibition of VEGFR-2 (unknown origin) by Kinase-Glo Max assay
HepG2 [20] = experiment: Antiproliferative activity against human HepG2 cells assessed as reduction in cell growth incubated for 48 hrs by MTT based colorimetric analysis; type: functional; conditions: HepG2, 48 h
[21] = Antiproliferative activity against human WI-38 cells assessed as reduction in cell growth measured after 24 hrs by MTT assay; type: toxicity, cell-based
[22] = target: Epidermal growth factor receptor (Homo sapiens, UniProt P00533); experiment: Inhibition of EGFR (unknown origin) using TK as substrate incubated for 60 mins by HTRF method
Chain of Epidermal growth factor receptor (P00533 whole entry): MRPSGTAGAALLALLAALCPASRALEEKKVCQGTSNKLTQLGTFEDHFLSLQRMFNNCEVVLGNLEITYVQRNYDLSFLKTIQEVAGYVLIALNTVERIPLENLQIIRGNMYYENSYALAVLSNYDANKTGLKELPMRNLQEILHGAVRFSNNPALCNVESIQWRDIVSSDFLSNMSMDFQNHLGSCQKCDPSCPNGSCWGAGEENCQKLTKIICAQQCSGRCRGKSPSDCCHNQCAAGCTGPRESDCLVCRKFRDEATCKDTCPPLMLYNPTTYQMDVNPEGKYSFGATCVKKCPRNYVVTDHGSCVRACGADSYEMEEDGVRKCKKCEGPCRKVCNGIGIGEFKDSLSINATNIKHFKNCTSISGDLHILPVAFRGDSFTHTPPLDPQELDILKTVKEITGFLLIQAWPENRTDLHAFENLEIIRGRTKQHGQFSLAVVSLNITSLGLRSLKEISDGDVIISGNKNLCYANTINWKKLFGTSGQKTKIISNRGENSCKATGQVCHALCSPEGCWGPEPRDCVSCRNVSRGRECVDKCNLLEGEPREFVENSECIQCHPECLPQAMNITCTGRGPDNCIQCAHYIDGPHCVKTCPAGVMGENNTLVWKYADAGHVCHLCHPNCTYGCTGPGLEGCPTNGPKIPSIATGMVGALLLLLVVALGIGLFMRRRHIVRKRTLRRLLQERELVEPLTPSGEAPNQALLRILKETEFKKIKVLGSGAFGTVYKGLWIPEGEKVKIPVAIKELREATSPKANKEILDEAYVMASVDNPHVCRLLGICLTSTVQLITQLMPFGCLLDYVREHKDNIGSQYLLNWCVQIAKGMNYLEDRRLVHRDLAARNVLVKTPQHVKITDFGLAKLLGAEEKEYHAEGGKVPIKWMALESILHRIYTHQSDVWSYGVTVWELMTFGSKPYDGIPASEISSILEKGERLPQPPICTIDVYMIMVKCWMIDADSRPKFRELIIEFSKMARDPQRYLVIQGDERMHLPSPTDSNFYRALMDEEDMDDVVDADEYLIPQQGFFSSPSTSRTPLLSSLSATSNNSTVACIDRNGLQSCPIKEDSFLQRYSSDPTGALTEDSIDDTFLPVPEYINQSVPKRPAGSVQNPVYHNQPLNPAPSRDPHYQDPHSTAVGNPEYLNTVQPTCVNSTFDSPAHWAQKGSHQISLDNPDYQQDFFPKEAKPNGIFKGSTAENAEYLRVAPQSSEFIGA

T1 sequence (P35968 whole entry): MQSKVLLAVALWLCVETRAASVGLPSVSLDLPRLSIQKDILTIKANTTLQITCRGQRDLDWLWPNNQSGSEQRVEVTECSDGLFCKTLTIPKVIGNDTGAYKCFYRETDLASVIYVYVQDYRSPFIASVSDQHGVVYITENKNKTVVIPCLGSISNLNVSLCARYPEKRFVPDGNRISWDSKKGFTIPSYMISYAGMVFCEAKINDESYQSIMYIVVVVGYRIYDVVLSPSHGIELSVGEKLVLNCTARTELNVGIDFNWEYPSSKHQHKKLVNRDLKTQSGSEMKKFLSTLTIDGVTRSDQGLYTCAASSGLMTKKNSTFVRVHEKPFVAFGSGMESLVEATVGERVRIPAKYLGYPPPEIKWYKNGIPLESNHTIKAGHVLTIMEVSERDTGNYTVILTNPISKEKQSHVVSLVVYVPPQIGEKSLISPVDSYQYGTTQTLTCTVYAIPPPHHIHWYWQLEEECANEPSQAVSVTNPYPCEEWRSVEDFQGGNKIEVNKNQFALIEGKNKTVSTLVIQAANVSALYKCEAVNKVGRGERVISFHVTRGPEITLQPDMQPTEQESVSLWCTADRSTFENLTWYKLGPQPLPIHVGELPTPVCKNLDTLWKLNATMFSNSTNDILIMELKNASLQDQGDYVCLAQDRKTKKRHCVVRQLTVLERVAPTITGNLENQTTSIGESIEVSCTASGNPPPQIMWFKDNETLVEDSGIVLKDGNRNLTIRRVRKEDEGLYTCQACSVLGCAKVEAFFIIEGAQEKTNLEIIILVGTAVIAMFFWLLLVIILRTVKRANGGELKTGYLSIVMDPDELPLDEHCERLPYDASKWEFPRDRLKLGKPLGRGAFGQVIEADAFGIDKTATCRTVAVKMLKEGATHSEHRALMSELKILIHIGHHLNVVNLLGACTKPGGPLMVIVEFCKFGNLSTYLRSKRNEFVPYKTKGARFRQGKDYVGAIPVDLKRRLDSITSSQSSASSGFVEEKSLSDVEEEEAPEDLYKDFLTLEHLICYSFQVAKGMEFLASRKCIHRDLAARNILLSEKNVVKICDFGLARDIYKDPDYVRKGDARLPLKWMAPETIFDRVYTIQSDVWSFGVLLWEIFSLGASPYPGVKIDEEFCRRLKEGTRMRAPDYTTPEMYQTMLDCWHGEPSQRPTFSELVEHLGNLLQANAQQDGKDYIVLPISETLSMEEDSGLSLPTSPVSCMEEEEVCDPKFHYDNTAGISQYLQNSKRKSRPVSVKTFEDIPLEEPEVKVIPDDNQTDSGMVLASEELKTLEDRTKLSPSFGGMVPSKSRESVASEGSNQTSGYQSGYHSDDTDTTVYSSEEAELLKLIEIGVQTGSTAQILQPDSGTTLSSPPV
Chain of Vascular endothelial growth factor receptor 1 (P17948 whole entry): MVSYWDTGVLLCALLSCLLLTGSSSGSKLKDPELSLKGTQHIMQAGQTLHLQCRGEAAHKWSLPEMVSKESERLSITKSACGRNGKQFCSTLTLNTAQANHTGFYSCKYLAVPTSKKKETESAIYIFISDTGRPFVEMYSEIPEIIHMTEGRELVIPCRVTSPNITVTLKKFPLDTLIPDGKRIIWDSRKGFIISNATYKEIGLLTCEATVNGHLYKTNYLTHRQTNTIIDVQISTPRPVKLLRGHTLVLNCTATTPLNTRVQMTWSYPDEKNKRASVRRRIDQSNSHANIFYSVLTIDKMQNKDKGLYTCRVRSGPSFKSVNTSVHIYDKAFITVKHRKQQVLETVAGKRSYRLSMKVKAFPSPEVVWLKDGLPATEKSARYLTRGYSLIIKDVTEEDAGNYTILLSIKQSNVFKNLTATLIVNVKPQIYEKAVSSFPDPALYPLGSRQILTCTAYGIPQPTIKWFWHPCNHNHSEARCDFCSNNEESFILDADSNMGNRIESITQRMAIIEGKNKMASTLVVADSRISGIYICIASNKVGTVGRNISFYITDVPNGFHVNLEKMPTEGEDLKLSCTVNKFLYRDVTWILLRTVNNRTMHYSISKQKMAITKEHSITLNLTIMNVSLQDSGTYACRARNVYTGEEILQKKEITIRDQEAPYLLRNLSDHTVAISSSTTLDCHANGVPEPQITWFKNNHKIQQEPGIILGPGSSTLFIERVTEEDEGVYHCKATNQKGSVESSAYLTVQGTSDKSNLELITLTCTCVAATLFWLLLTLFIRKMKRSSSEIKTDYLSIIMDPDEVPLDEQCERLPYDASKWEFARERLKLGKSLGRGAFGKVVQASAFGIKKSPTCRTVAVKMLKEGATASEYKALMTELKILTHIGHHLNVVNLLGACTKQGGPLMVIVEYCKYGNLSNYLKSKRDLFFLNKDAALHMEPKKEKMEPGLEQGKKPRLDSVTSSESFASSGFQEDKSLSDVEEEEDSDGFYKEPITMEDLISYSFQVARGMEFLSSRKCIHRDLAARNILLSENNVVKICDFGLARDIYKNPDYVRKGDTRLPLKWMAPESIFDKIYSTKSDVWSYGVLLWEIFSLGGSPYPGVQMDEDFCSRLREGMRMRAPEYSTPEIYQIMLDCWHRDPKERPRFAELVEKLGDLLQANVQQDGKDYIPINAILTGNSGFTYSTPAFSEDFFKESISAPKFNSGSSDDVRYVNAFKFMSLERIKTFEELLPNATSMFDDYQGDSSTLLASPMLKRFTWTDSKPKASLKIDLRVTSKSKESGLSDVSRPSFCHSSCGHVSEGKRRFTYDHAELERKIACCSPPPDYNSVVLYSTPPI

IC50 (HCT-116 [5]): 5000 nM
IC50 (MCF7 [6]): 6770 nM
SMILES: C/C(=N\NC(=O)c1ccccc1O)c1ccc(NC(=O)CSc2nc3ccccc3c(=O)n2-c2ccccc2)cc1

IC50 [10]: 247 nM
SMILES: COc1cccc(CNC(=O)CSc2nc3ccccc3c(=O)n2-c2ccc(S(N)(=O)=O)cc2)c1OC
IC50 (MDA-MB-231 [11]): 340 nM
IC50 (MDA-MB-231 [12]): 510 nM

IC50 (HCT-116 [14]): 4830 nM
IC50 (MCF7 [15]): 4580 nM
SMILES: CCn1c(SCC(=O)Nc2ccc(/C(C)=N/O)cc2)nc2ccccc2c1=O

IC50 (HepG2 [20]): 4330 nM
SMILES: CCNC(=S)NS(=O)(=O)c1ccc(NC(=O)CSc2nc3ccccc3c(=O)n2CC)cc1

IC50 [22]: 479 nM
SMILES: CC(C)c1ccc(Nc2ncnc3cc(NC(=O)Nc4ccccc4)ccc23)cc1

More lines, now with the values behind:

SMILES: COc1cccc2c1C(=O)c1c(O)c3c(c(O)c1C2=O)C[C@@](O)(C(=O)CO)C[C@@H]3O[C@H]1C[C@H](N)[C@H](O)[C@H](C)O1 [DOXORUBICIN]
IC50 (HepG2 [1]): 7.94 µg/mL (≈ 14.6 µM)
IC50 (PC-3): 8.87 µg/mL (≈ 16.3 µM)
IC50 (MCF7 [2]): 6.75 µg/mL (≈ 12.4 µM)

SMILES: COc1cc2ncnc(Oc3cccc(NC(=S)Nc4ccc(Br)c(C(F)(F)F)c4)c3)c2cc1OC
IC50 (B16): 5570 nM
IC50 (HCT-116 [3]): 8350 nM
IC50 (MCF7 [4]): 15700 nM

SMILES: CCCNC(=O)Nc1ccc(Nc2ncnc3cc(OC)c(OC)cc23)cc1Cl
IC50 [7]: 160 nM
IC50 [8]: 170 nM
IC50 [9]: 125 nM

SMILES: COc1cc2ncnc(Nc3ccsc3C(=O)Nc3ccc(F)c(Cl)c3)c2cc1OC
IC50 [7]: 87 nM
IC50 [8]: 110 nM

SMILES: Cc1ncc([N+](=O)[O-])n1CCOc1ncnc2ccc([N+](=O)[O-])cc12
IC50 (A549): 1520 nM
IC50 (MCF7 [13]): 1610 nM
IC50 (NCI-H460): 1230 nM
IC50 (Macrophage): 290000 nM

SMILES: Cc1ccc2nc(-c3cccnc3)nc(NNC(=S)NC3CCCCC3)c2c1
IC50 (HepG2 [16]): 10400 nM
IC50 (HCT-116 [17]): 3370 nM
IC50 (WISH): 49600 nM

SMILES: COc1cc2nccc(Oc3ccc(NC(=O)Nc4cc(C)on4)c(Cl)c3)c2cc1OC [TIVOZANIB]
IC50 (A549): 620 nM
IC50 (NCI-H460): 390 nM
IC50 (Macrophage): 227000 nM

SMILES: O=[N+]([O-])c1ccc(COc2ncnc3ccc([N+](=O)[O-])cc23)cc1
IC50 [18]: 4.71 nM

SMILES: CNC(=O)c1c(C)oc2cc(Oc3ncnc4cc(OC)c(OC)cc34)ccc12 [FRUQUINTINIB]
IC50 [19]: 35 nM

SMILES: COc1cc2ncnc(Oc3cccc(NC(=S)Nc4ccc(Cl)c(C(F)(F)F)c4)c3)c2cc1OC
IC50 (B16): 6110 nM
IC50 (HCT-116 [3]): 9130 nM
IC50 (MCF7 [4]): 17700 nM

SMILES: CCn1c(SCC(=O)NNC(=O)c2ccccc2)nc2ccc([N+](=O)[O-])cc2c1=O
IC50 at 24 h [21]: 146 µg/mL (≈ 341 µM)
